# Reference: patent US20230414569A1, “ORAL CANINE FEED AND METHODS FOR CONTROLLING FLEA INFESTATIONS IN A CANINE” (In the Bowl Animal Health, Inc., priority 2021, published 2023)
# Key:
# [1] = Plasma levels in dogs given medicated daily feed at different dosage levels (Example 6); type: in vivo, dog; parameters: unit not given here
# Text: Methods: A pool of dogs are to be preliminarily infested with ˜50 unfed adult R. sanguineus ticks in order to produce dogs that can suitably sustain a reliable infestation rate, defined as approximately 25% of attached ticks being live at the end of a 72-hour period. The 24 dogs with the highest live attached tick counts are to be selected for inclusion in the study. The 18 dogs with the highest live attached tick counts are to be randomly assigned to one of a control group and 2 treatment groups. The 6 dogs with the next highest live attached tick counts are to be assigned to a third treatment group.
# The dogs are to be housed individually during the study period and are to have ad libitum access to water.
# Each dog in a treatment group (test groups 2-4) is to receive a medicated daily feed from study days 0-49. The medicated daily feed is to be offered to the dogs for 1 hour on each of days 0-49 according to test groups listed in TABLE 7.
# Blood is to be drawn at 0, 1, 3, 6, 10, 24, 48, 96, 168, 240 and 336 hours after the initial dose of isoxazoline is administered.
# [2] = Plasma concentration in dogs after daily oral liquid dosing (Example 1); type: in vivo; settings: dog plasma, individual canines, 0.75 mg/kg/day oral days 0-29; Day -1 (pre-dose)
# Method: Each dog in the treatment group is to receive by mouth a liquid formulation of isoxazoline. The dosage of 0.75 mg/kg is to be administered to the dogs on each of days 0-29.
# Dogs in the control group are not to receive isoxazoline or any other flea control treatment. Each dog in the treatment group is to be offered its daily ration (dry food) and the individual doses of liquid formulation are to be administered after the individual dog has eaten at least 25% of its total daily ration. After receiving the dose of isoxazoline, the dogs are to be allowed to continue eating. This mimics incorporating the isoxazoline in feed. Each dog in the treatment group and the control group is to be experimentally infested with 100 unfed adult fleas on test days 2, 5, 12, 20 and 35. Comb counts for live adult fleas are to be conducted on days 4, 7, 14, 21 and 37.
structure (smiles),measurement,setting,value
"O=C(CNC(=O)c1sc(C2=NO[C@@](c3cc(Cl)c(F)c(Cl)c3)(C(F)(F)F)C2)c2c1CCC2)NCC(F)F [Mivorilaner, 3-[(5S)-5-(3,5-dichloro-4-fluorophenyl)-5-(trifluoromethyl)-4,5-dihydroisoxazol-3-yl]-N-[2-[(2,2-difluoroethyl)amino]-2-oxoethyl]-5,6-dihydro-4H-cyclopenta[c]thiophene-1-carboxamide]",average plasma concentration of isoxazoline,"[1]; Group 2 - 106 mg/kg feed (anticipated 1 mg/kg daily), 1 hr",49.98
same,average plasma concentration of isoxazoline,"[1]; Group 2 - 106 mg/kg feed (anticipated 1 mg/kg daily), 3 hr",292.00
same,average plasma concentration of isoxazoline,"[1]; Group 2 - 106 mg/kg feed (anticipated 1 mg/kg daily), 6 hr",539.00
same,average plasma concentration of isoxazoline,"[1]; Group 2 - 106 mg/kg feed (anticipated 1 mg/kg daily), 10 hr",505.40
same,average plasma concentration of isoxazoline,"[1]; Group 2 - 106 mg/kg feed (anticipated 1 mg/kg daily), 24 hr",458.60
same,average plasma concentration of isoxazoline,"[1]; Group 2 - 106 mg/kg feed (anticipated 1 mg/kg daily), 48 hr",771.83
same,average plasma concentration of isoxazoline,"[1]; Group 2 - 106 mg/kg feed (anticipated 1 mg/kg daily), 96 hr",1570.50
same,average plasma concentration of isoxazoline,"[1]; Group 2 - 106 mg/kg feed (anticipated 1 mg/kg daily), 168 hr",2156.67
same,average plasma concentration of isoxazoline,"[1]; Group 2 - 106 mg/kg feed (anticipated 1 mg/kg daily), 240 hr",3003.33
same,average plasma concentration of isoxazoline,"[1]; Group 2 - 106 mg/kg feed (anticipated 1 mg/kg daily), 336 hr",3290.00
same,average plasma concentration of isoxazoline,"[1]; Group 3 - 106 mg/kg feed (anticipated 1 mg/kg daily), 1 hr",40.41
same,average plasma concentration of isoxazoline,"[1]; Group 3 - 106 mg/kg feed (anticipated 1 mg/kg daily), 3 hr",264.83
same,average plasma concentration of isoxazoline,"[1]; Group 3 - 106 mg/kg feed (anticipated 1 mg/kg daily), 6 hr",467.50
same,average plasma concentration of isoxazoline,"[1]; Group 3 - 106 mg/kg feed (anticipated 1 mg/kg daily), 10 hr",419.17
same,average plasma concentration of isoxazoline,"[1]; Group 3 - 106 mg/kg feed (anticipated 1 mg/kg daily), 24 hr",435.17
same,average plasma concentration of isoxazoline,"[1]; Group 3 - 106 mg/kg feed (anticipated 1 mg/kg daily), 48 hr",781.83
same,average plasma concentration of isoxazoline,"[1]; Group 3 - 106 mg/kg feed (anticipated 1 mg/kg daily), 96 hr",1596.67
same,average plasma concentration of isoxazoline,"[1]; Group 3 - 106 mg/kg feed (anticipated 1 mg/kg daily), 168 hr",2406.67
same,average plasma concentration of isoxazoline,"[1]; Group 3 - 106 mg/kg feed (anticipated 1 mg/kg daily), 240 hr",3026.67
same,average plasma concentration of isoxazoline,"[1]; Group 3 - 106 mg/kg feed (anticipated 1 mg/kg daily), 336 hr",3516.67
same,average plasma concentration of isoxazoline,"[1]; Group 4 - 318 mg/kg feed (anticipated 3 mg/kg daily), 1 hr",143.75
same,average plasma concentration of isoxazoline,"[1]; Group 4 - 318 mg/kg feed (anticipated 3 mg/kg daily), 3 hr",846.50
same,average plasma concentration of isoxazoline,"[1]; Group 4 - 318 mg/kg feed (anticipated 3 mg/kg daily), 6 hr",1265.67
same,average plasma concentration of isoxazoline,"[1]; Group 4 - 318 mg/kg feed (anticipated 3 mg/kg daily), 10 hr",1198.17
same,average plasma concentration of isoxazoline,"[1]; Group 4 - 318 mg/kg feed (anticipated 3 mg/kg daily), 24 hr",1021.17
same,average plasma concentration of isoxazoline,"[1]; Group 4 - 318 mg/kg feed (anticipated 3 mg/kg daily), 48 hr",2011.67
same,average plasma concentration of isoxazoline,"[1]; Group 4 - 318 mg/kg feed (anticipated 3 mg/kg daily), 96 hr",3928.33
same,average plasma concentration of isoxazoline,"[1]; Group 4 - 318 mg/kg feed (anticipated 3 mg/kg daily), 168 hr",6461.67
same,average plasma concentration of isoxazoline,"[1]; Group 4 - 318 mg/kg feed (anticipated 3 mg/kg daily), 240 hr",8696.67
same,average plasma concentration of isoxazoline,"[1]; Group 4 - 318 mg/kg feed (anticipated 3 mg/kg daily), 336 hr",11600.00
same,Mivorilaner Concentration,[2],BLQ
